Assay results from US20030207813A1, “Retroviral protease inhibitor combinations” (priority 1995, published 2003).
≈ marks a conversion by molar mass, not a printed value. Read-outs that look alike come from different tables or passages of the source.

Tested on: HIV-1 strain SF-162
Assay: Acute infectivity assay in PHA-activated donor lymphocytes, isolate SF162
Format: cell-based
Details: Human immunodeficiency virus 1, Lymphocyte
Procedure: Approximately 3×10^7 cells are activated for 48 hours with about 3-5 μg/ml PHA in RPMI continuing 10% fetal bovine serum and IL-2 (10 U/ml). Quantitated virus stocks are added to the activated lymphocyte suspension at a multiplicity of infection of about 0.001-0.01. The cell-virus suspension is incubated at 37° C. for 2 hours to allow virus absorption. The residual virus inoculum is removed by centrifugation and the cells are resuspended in RPMI containing 10% FBS and 10 U/ml IL-2. These infected cells are added to the test-article diluted in complete tissue culture medium from a stock (10 mg/ml) in DMSO in 96 well microtiter plates to give about 5×10^5 cells per well per 200 μl. Infected, untreated cells and cells treated with DMSO alone (0.1%) or either AZT or DDI were used as controls. The cultures were examined for syncytia formation on days 7 and 11 post-infection or the supernants tested for reverse transcriptase activity or p24 antigen.
RF represents the HIV-1 strain HIV-LRF and RFR represents a mixture of resistant strains obtained by selection of RF against the compound of Example 1. RFR comprises a mixture of viral strains having protease genotypes of G48V (14/40 clones); G48V, V82A (18/40 clones); G48V, L90S (2/40 clones); G48V, 154T, V82A (1/40 clones); G48M (1/40 clones); G48V, Q61H (1/40 clones); V13I, G48V (1/40 clones); G48V, F53L, V82A (1/40 clones); and G48V, V82A, C95Y (1/40 clones). RFR2 represents a mixture of resistant strains obtained by cloning RFR by three rounds of growth at limiting dilution. RFR2 comprises a mixture of viral strains having protease genotypes of G48V, V82A (13/15 clones); G17E, G48V, V82A (1/15 clones); and G48V, V82A, N37D, N88D (1/15 clones). RFRR represents a mixture of resistant strains obtained by selection of RF against the compounds of Examples 1 and 2 and then cloning by three rounds of growth at limiting dilution. RFRR comprises a mixture of viral strains having protease genotypes of G48V, 154T, L63P, V82A (7/9 clones); G48V, 154T, L63P, V82A, N88S (1/9 clones); and G48V, 154T, L63P, G73M, V82A (1/9 clones). SF162 represents the HIV-1 strain SF-162 and SF162R represents a mixture of resistant strains obtained by selection of SF162 against the compound of Example 1. SF162R comprises a mixture of viral strains having protease genotypes of M461, F53L, L63P, A71V, N88D (2/3 clones); and M46I, F53L, L63P, A71V, N88D, Q92R (1/3 clones). 89-959 represents the HIV-1 strain 89-959 and 89-959R represents a mixture of resistant strains obtained by selection of 89-959 against the compound of Example 2. 89-959R comprises a mixture of viral strains having protease genotypes of N88S (4/5 clones); and D25N, T26A, D30N, D37N, R41K, G73D, R87K, N88S (1/4 clones). NL4 represents the HIV-1 strain HIV-1NL4-3. NL4(G48V) represents a strain having a synthetically generated site-directed mutation in the protease from glycine to valine at amino acid position number 48. NL4(I84V) represents a strain having a synthetically generated site-directed mutation in the protease from isoleucine to valine at amino acid position number 84. NL4(R8Q,M46I) represents a strain having synthetically generated site-directed mutations in the protease from arginine to glutamine at amino acid position number 8 and methionine to isoleucine at amino acid position number 46. NL4(P22-538) represents a mixture of resistant strains obtained by selection of HIV-1NL4-3 against the compound of Example 10 after 22 passages comprising protease genotypes M46I, L63P, A71V, V82F, I84V (4/10); M46I, L63P, V82F, I84V (3/10); and M46I, A71V, V82F, I84V (3/10). NL4(P37-538) represents resistant strains obtained by selection of HIV-1NL4-3 against the compound of Example 10 after 37 passages comprising protease genotype M46I, L63P, A71V, 184A. NL4(538/524) represents resistant strains obtained by selection of NL4(P22-538) against the compound of Example 5 after 24 passages comprising protease genotype M46I, L63P, A71V, 184A. […]

[1] = Table 1, read-out: Virus Isolate (EC50 ng/mL) SF162
[2] = Table 2, read-out: Virus Isolate (EC50 ng/mL) SF162

Structure (SMILES): CC(C)CN(C[C@@H](O)[C@H](Cc1ccccc1)NC(=O)[C@H](CC(N)=O)NC(=O)c1ccc2ccccc2n1)C(=O)NC(C)(C)C (relative stereo) [Example 1, [1S-[1R*(R*),2S*]]-N^1-[3-[[[(1,1-dimethylethyl)amino]carbonyl])2-methylpropyl)amino]-2-hydroxy-1-(phenylmethyl)propyl]-2-[(2-quinolinylcarbonyl)amino]-butanediamide]
- EC50 [1]: 31 ng/mL (≈ 51.3 nM)
- EC50 [2]: 2 ng/mL (≈ 3.31 nM)

Structure (SMILES): CC(C)CCN(C[C@@H](O)[C@H](Cc1ccccc1)NC(=O)[C@H](CC(N)=O)NC(=O)c1ccc2ccccc2n1)C(=O)NC(C)(C)C (relative stereo) [Example 7, [1S-[1R*(R*),2S*]]-N^1-[3-[[[(1,1-dimethylethyl)amino]carbonyl](3-methylbutyl)amino]-2-hydroxy-1-(phenylmethyl)propyl]-2-[(2-quinolinylcarbonyl)amino]-butanediamide]
- EC50 [2]: 1 ng/mL (≈ 1.62 nM)

Structure (SMILES): CC(C)(C)NC(=O)[C@@H]1CC2CCCC[C@@H]2CN1C[C@@H](O)[C@H](Cc1ccccc1)NC(=O)[C@H](CC(N)=O)NC(=O)c1ccc2ccccc2n1 (stereo in doubt) [Example 6, N-tert-Butyl decahydro-2-[2(R)-hydroxy-4-phenyl-3(S)-[[N-(2-quinolylcarbonyl)-L-asparaginyl]amino]butyl]-(4aR,8aS)-isoquinoline-3(S)-carboxamide]
- EC50 [1]: 2 ng/mL (≈ 2.98 nM)

Structure (SMILES): CNCC(=O)N[C@H](C(=O)N[C@@H](Cc1ccccc1)[C@H](O)CN(CCC(C)C)C(=O)NC(C)(C)C)C(C)(C)C [Example 2, (2R,3S)-3-(N-methylaminoacetyl-L-tert-butylglycinyl)amino-1-(N-isoamyl-N-(tert-butylcarbamoyl))amino-4-phenyl-2-butanol]
- EC50 [1]: 2 ng/mL (≈ 3.75 nM)

Structure (SMILES): CC(C)(C)NC(=O)[C@@H]1CN(Cc2cccnc2)CCN1C[C@@H](O)C[C@@H](Cc1ccccc1)C(=O)N[C@H]1c2ccccc2C[C@H]1O [Example 5, N-(2(R)-Hydroxy-1(S)-indanyl)-2(R)-phenylmethyl-4(S)-hydroxy-5-(1-(4-(3-pyridylmethyl)-2(S)-N′-(t-butylcarboxamido)-piperazinyl))-pentaneamide]
- EC50 [1]: 4 ng/mL (≈ 6.52 nM)

Structure (SMILES): CC(C)CN(C[C@@H](O)[C@H](Cc1ccccc1)NC(=O)[C@H](CC(N)=O)NC(=O)c1ccc2ccccc2n1)S(=O)(=O)NC(C)(C)C [Example 8, N-[3-[N^2-[N^1-(1,1-dimethylethyl)aminosulfonyl]-N^2-(2-methylpropyl)amino]-2R-hydroxy-1S-(phenylmethyl)propyl]-2S-[(2-quinolinylcarbonyl)amino]butanediamide]
- EC50 [2]: 1 ng/mL (≈ 1.56 nM)
